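Dose response: 5 concentrations. Exposure: 48 h. Format: 96-well plates. Endpoint: linear interpolation; highest concentration if not reached. GI50 marks 50% less growth. TGI is the concentration that stops growth completely.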
System: SK-MEL-5 melanoma
Assay: DTP human tumour cell line panel, 48 h

Row | SMILES | TGI [µM] | GI50 [µM]
1 | Cc1cc(-c2nc3c(F)cccc3s2)ccc1N | > 100 | –
2 | O=[N+]1[C@H](c2ccccc2)[C@H](c2ccccc2)N1[O-] | 30.9 | –
3 | COC(=O)c1ccc2c(c1)CC1(C2)Cc2ccccc2C1=O (stereo not drawn) | 32.6 | –
4 | C[C@@H]1CCc2ncc(F)cc2[C@H]2CCCN2c2ccn3ncc(c3n2)C(=O)N1 | > 100 | > 100

System: OVCAR-8 ovarian
Assay: DTP human tumour cell line panel, 48 h

Row | SMILES | TGI [µM] | GI50 [µM]
5 | C1CSCC2(COC2)CSCCSCC2(COC2)CS1 | > 100 | –
6 | Cc1cc(-c2nc3c(F)cccc3s2)ccc1N | > 100 | –
7 | COc1ccccc1N/C(SCc1ccccc1)=C(/C(Cl)=C(Cl)Cl)[N+](=O)[O-] | 27.4 | –
8 | O=[N+]1[C@H](c2ccccc2)[C@H](c2ccccc2)N1[O-] | 32.7 | –
9 | COC(=O)c1ccc2c(c1)CC1(C2)Cc2ccccc2C1=O (stereo not drawn) | > 100 | –
10 | C[C@@H]1CCc2ncc(F)cc2[C@H]2CCCN2c2ccn3ncc(c3n2)C(=O)N1 | > 100 | > 100

System: U251 CNS
Assay: DTP human tumour cell line panel, 48 h

Row | SMILES | TGI [µM] | GI50 [µM]
11 | C1CSCC2(COC2)CSCCSCC2(COC2)CS1 | > 100 | –
12 | Cc1cc(-c2nc3c(F)cccc3s2)ccc1N | > 100 | –
13 | COc1ccccc1N/C(SCc1ccccc1)=C(/C(Cl)=C(Cl)Cl)[N+](=O)[O-] | 47.3 | –
14 | O=[N+]1[C@H](c2ccccc2)[C@H](c2ccccc2)N1[O-] | 33.5 | –
15 | COC(=O)c1ccc2c(c1)CC1(C2)Cc2ccccc2C1=O (stereo not drawn) | > 100 | –
16 | C[C@@H]1CCc2ncc(F)cc2[C@H]2CCCN2c2ccn3ncc(c3n2)C(=O)N1 | > 100 | > 100

System: M14 melanoma
Assay: DTP human tumour cell line panel, 48 h

Row | SMILES | TGI [µM] | GI50 [µM]
17 | C1CSCC2(COC2)CSCCSCC2(COC2)CS1 | > 100 | –
18 | Cc1cc(-c2nc3c(F)cccc3s2)ccc1N | > 100 | –
19 | COc1ccccc1N/C(SCc1ccccc1)=C(/C(Cl)=C(Cl)Cl)[N+](=O)[O-] | > 100 | –
20 | O=[N+]1[C@H](c2ccccc2)[C@H](c2ccccc2)N1[O-] | 29.6 | –
21 | COC(=O)c1ccc2c(c1)CC1(C2)Cc2ccccc2C1=O (stereo not drawn) | 38.6 | –
22 | C[C@@H]1CCc2ncc(F)cc2[C@H]2CCCN2c2ccn3ncc(c3n2)C(=O)N1 | > 100 | > 100

System: UACC-257 melanoma
Assay: DTP human tumour cell line panel, 48 h

Row | SMILES | TGI [µM] | GI50 [µM]
23 | C1CSCC2(COC2)CSCCSCC2(COC2)CS1 | > 100 | –
24 | Cc1cc(-c2nc3c(F)cccc3s2)ccc1N | > 100 | –
25 | COc1ccccc1N/C(SCc1ccccc1)=C(/C(Cl)=C(Cl)Cl)[N+](=O)[O-] | > 100 | –
26 | O=[N+]1[C@H](c2ccccc2)[C@H](c2ccccc2)N1[O-] | 26.3 | –
27 | COC(=O)c1ccc2c(c1)CC1(C2)Cc2ccccc2C1=O (stereo not drawn) | 35.2 | –
28 | C[C@@H]1CCc2ncc(F)cc2[C@H]2CCCN2c2ccn3ncc(c3n2)C(=O)N1 | > 100 | > 100

System: CAKI-1 renal
Assay: DTP human tumour cell line panel, 48 h

Row | SMILES | TGI [µM] | GI50 [µM]
29 | Cc1cc(-c2nc3c(F)cccc3s2)ccc1N | > 100 | –
30 | COc1ccccc1N/C(SCc1ccccc1)=C(/C(Cl)=C(Cl)Cl)[N+](=O)[O-] | 74.9 | –
31 | O=[N+]1[C@H](c2ccccc2)[C@H](c2ccccc2)N1[O-] | 19.7 | –
32 | COC(=O)c1ccc2c(c1)CC1(C2)Cc2ccccc2C1=O (stereo not drawn) | > 100 | –
33 | C[C@@H]1CCc2ncc(F)cc2[C@H]2CCCN2c2ccn3ncc(c3n2)C(=O)N1 | > 100 | 23

System: ACHN renal
Assay: DTP human tumour cell line panel, 48 h

Row | SMILES | TGI [µM] | GI50 [µM]
34 | Cc1cc(-c2nc3c(F)cccc3s2)ccc1N | > 100 | –
35 | COc1ccccc1N/C(SCc1ccccc1)=C(/C(Cl)=C(Cl)Cl)[N+](=O)[O-] | > 100 | –
36 | O=[N+]1[C@H](c2ccccc2)[C@H](c2ccccc2)N1[O-] | 32.3 | –
37 | COC(=O)c1ccc2c(c1)CC1(C2)Cc2ccccc2C1=O (stereo not drawn) | > 100 | –
38 | C[C@@H]1CCc2ncc(F)cc2[C@H]2CCCN2c2ccn3ncc(c3n2)C(=O)N1 | > 100 | 65.9

System: UO-31 renal
Assay: DTP human tumour cell line panel, 48 h

Row | SMILES | TGI [µM]
39 | C1CSCC2(COC2)CSCCSCC2(COC2)CS1 | > 100
40 | Cc1cc(-c2nc3c(F)cccc3s2)ccc1N | > 100
41 | COc1ccccc1N/C(SCc1ccccc1)=C(/C(Cl)=C(Cl)Cl)[N+](=O)[O-] | 34.6
